Values quoted from earlier work, collected in patent US20070071683A1, “Ultrasonic concentration of carrier particles” (The Regents of the University of California, priority 2005, published 2007).

Test system: tumor
Details: paclitaxel alone

Q: With `CC(=O)O[C@H]1C(=O)[C@@]2(C)[C@H]([C@H](OC(=O)c3ccccc3)[C@]3(O)C[C@H](OC(=O)[C@H](O)[C@@H](NC(=O)c4ccccc4)c4ccccc4)C(C)=C1C3(C)C)[C@]1(OC(C)=O)CO[C@@H]1C[C@@H]2O` [paclitaxel] as the compound, how does the “effect on tumor volume” value read?
A: The value was “did not affect tumor volume”.
